# Measured values taken from US6562871B1, “Dry granulation of pharmaceutical formulation comprising mexiletine” (Boehringer Ingelheim Pharmaceuticals, Inc., priority 2000, dated 2003).
# Where two headings read alike, the source gives them in different places.
# Columns and labels:
# [1] = Procedure: Particle size and distribution was determined by suspending a sample of powder in mineral oil on a hemacytometer and counting particles in the size ranges: 1-5, 5-10, 10-25, 25-50, 50-100, 100-200, >200 μm using a polarizing light microscope. At least 200 particles were counted.
# Maximum and minimum particle sizes were determined with a large sampling using a low power, stereo microscope. The sample was suspended in a well slide filled with mineral oil. Measurements of the largest and smallest particles were made with a calibrated reticule.
# [2] = Flow studies (funnel flow rate, angle of repose); type: physicochemical
# Procedure: The flow studies were performed using a ring stand and funnel set-up, such that the funnel was perpendicular to the table flat surface and the tip of the funnel was 6 inches from the table flat surface. The funnel was plastic with the following dimensions: upper diameter, 150 mm, lower diameter 24 mm, and overall length 135 mm. To the upper, wider diameter of the funnel a vibrator was placed touching the outer perimeter. The vibrator was set on its dial such that the indicator was in the 3 o'clock position. Fifty grams of material was placed into the funnel while holding a piece of cardboard under it. The vibrator was started, and the cardboard was removed while simultaneously starting a timer. The time for the fifty grams to pass through a funnel was recorded. The angle of repose, the maximum angle that can be obtained between the free standing surface of a powder heap and the horizontal plane, was calculated according to: […]
# Where h is the height of the powder heap and D is the diameter of the base of the powder heap. Tests were performed in duplicate.
# [3] = Compressional force profiles; type: physicochemical; conditions: slugs on hydraulic press, FIG. 1 and FIG. 2
# Source text: Compressional force profiles were generated on a calibrated Carver press using 12 mm standard cup punches and matching die. The punches and die were dusted with magnesium stearate to facilitate the release of the slug from the die. Five hundred milligram aliquots of drug substance were weighed and individually loaded into the die for compression. Slugs were compressed at 1000, 2000, 3000, 4000, 5000, 6000, 7000 and 8000 pounds gauge force (unless otherwise noted). Gauge force readings were corrected based on the calibration for that gauge and press. The compressed slugs for each representative force were weighed on a four place balance and measured for thickness. Pressure, volume and density were calculated using slug (tablet) geometry and area.
# Pour and tap density = type: physicochemical; conditions: average of two measurements
# Procedure: Pour and tap density were tested using a Van Kel dual tapper and a 100 mL fluted graduate. The tare weight of the graduate was determined. It was then filled by pouring the powder into the graduate to approximately 70 mL. The net weight was next determined and a pour density calculated by dividing the net weight by the observed volume. Tap density was determined by allowing the graduate to tap 1000 times and reading the new volume. Tap density was calculated by dividing the net weight by the new “tap” volume. Both measurements were expressed in grams/mL. Results were reported as the average of two measurements.
smiles,measurement,setting,value
"Cc1cccc(C)c1OCC(C)N (centres unmarked) [Mexiletine Drug Substance, 1-(2,6-dimethyl-phenoxy)-2-propanamine]","Particle Size Distribution, % by number",[1]; size range 1-5 μm,32.0%
same,"Particle Size Distribution, % by number",[1]; size range 5-10 μm,23.3%
same,"Particle Size Distribution, % by number",[1]; size range 10-25 μm,37.9%
same,"Particle Size Distribution, % by number",[1]; size range 25-50 μm,6.6%
same,"Particle Size Distribution, % by number",[1]; size range 50-100 μm,0.2%
same,"Particle Size Distribution, % by number",[1]; size range 100-200 μm,0.0%
same,"Particle Size Distribution, % by number",[1]; size range >200 μm,0.0%
same,Size of larger particles,"[1]; well slide technique, larger sample sizes, very few",150 μm
same,Angle of Repose,[2],62 °
same,Flow Rate,"[2]; 50 g through funnel, vibrator assisted",2.1 g/s
same,Compressibility (density vs pressure),[3]; listed as drug substance,very compressible
same,Compressibility (density vs pressure),[3]; listed as mexiletine drug substance,very good compressional characteristics
same,Tap Density,Pour and tap density; 1000 taps,0.35 g/mL
same,Bulk Density,Pour and tap density; pour density,0.22 g/mL
